Results on 1 molecule are retold here after paper PMC4406354 (Journal of bone and mineral research : the official journal …, 2015).

The target in the assay is T1, tissue-nonspecific alkaline phosphatase (TNAP) (Homo sapiens, UniProt P05186).
T1 sequence (P05186 18-501): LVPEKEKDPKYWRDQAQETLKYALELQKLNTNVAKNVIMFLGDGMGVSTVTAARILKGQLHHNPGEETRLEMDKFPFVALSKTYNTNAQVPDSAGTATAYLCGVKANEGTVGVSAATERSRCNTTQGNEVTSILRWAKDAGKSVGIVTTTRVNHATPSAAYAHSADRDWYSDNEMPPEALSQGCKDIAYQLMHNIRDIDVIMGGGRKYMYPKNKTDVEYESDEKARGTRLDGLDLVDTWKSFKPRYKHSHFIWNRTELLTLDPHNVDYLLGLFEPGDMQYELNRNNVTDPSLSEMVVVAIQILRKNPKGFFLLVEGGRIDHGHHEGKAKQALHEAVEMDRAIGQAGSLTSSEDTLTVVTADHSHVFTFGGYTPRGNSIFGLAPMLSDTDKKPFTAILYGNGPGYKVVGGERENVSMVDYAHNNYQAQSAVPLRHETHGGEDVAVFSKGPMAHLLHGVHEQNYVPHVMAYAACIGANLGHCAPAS
In words: in vitro TNAP inhibition IC50. In kind it is biochemical.

As a reminder, the IC50 is the concentration needed to halve the response being measured. Read a low IC50 as higher potency. `COc1ccc(Cl)cc1S(=O)(=O)Nc1cncc(C(N)=O)c1` [SBI-425] registered an IC50 of 14 nM.
